Results as given in paper PMC10710878 (Journal of receptor and signal transduction research, 2022).
Counter-ions that a name gives are not always drawn. Like-named read-outs stand apart in the source and are kept apart here. Each block holds one molecule with its values, some of them ahead of it.

Key:
[1] = target: T1, α2A-AR (Rattus norvegicus, UniProt P22909); type: cell-based; conditions: for pKb (equilibrium dissociation constant, Schild x-intercept): antagonizing EPI-induced reduction of epileptiform burst discharges
T1 sequence (P22909 1-465): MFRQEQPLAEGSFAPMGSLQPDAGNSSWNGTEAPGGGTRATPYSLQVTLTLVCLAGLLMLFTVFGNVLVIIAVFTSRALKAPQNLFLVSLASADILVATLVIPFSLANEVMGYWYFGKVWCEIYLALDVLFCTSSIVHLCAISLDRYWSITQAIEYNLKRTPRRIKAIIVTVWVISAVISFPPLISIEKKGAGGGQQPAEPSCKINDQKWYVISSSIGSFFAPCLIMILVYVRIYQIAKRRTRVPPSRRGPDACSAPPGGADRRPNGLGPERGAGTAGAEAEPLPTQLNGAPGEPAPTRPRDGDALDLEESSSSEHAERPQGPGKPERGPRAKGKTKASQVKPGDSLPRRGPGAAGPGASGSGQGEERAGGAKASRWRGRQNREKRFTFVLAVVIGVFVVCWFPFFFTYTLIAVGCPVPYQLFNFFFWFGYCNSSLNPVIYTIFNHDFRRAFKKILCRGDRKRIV

[2] = tested on: human α2A-AR versus α2B- or α2C-AR; conditions: published EC50 for cloned human α2-ARs, ref Table S3; cited from earlier work
[3] = tested on: pyramidal cells; conditions: modulation of α2A-AR, data not shown
[4] = tested on: human 5-HT1A; conditions: published pEC50, ref Table S3; cited from earlier work

Compound: Cc1cccc([C@H](C)c2cnc[nH]2)c1C [dexmedetomidine, dexmedetomidine hydrochloride]
α2-AR subtype selectivity in words [2]: no subtype selectivity

Compound: COc1cccc(OC)c1OCCNCC1COc2ccccc2O1 (centres unmarked) [WB-4101]
pKb (equilibrium dissociation constant, Schild x-intercept) [1]: 7.34

Compound: CC1c2ccccc2CN1CC1=NCCN1 (centres unmarked) [BRL-44408]
pKb (equilibrium dissociation constant, Schild x-intercept) [1]: 7.81

Compound: CN1CCN(c2ccc(Nc3c4ccccc4nc4ccccc34)cc2)CC1 [JP-1302]
pKb (equilibrium dissociation constant, Schild x-intercept) [1]: 5.23

Compound: CN1CC[C@]2(CCN3CCc4c(oc5ccccc45)[C@@H]3C2)N(C)C1=O [MK-912]
pKb (equilibrium dissociation constant, Schild x-intercept) [1]: 8.32

Compound: CNC[C@H](O)c1ccc(O)c(O)c1 [EPI, epinephrine]
hyperpolarization of pyramidal cells [3]: does not hyperpolarize pyramidal cells

Compound: Brc1c(NC2=NCCN2)ccc2nccnc12 [UK-14304]
lower potency towards 5-HT1A compared with the α2A-AR [4]: 1,000 fold
greater potency at α2A-ARs than α2B- or α2C-ARs [2]: 10 fold

Compound: N=C(N)N/N=C/c1c(Cl)cccc1Cl [guanabenz, guanabenz acetate]
Kb [1]: 39.8 nM

Second part, the molecule after the results:

Kb [1]: 3.72 nM
Compound: CCC1(C2=NCCN2)Cc2ccccc2O1 (centres unmarked) [efaroxan, efaroxan hydrochloride]

pKb (equilibrium dissociation constant, Schild x-intercept) [1]: 8.87
Compound: COC1(C2=NCCN2)COc2ccccc2O1 (centres unmarked) [RX-821002]

parallel rightward shift of the control EPI concentration-response curve ([1]; 3 nM RS-79948): 4 fold
parallel rightward shift of the control EPI concentration-response curve ([1]; 10 nM RS-79948): 13 fold
parallel rightward shift of the control EPI concentration-response curve ([1]; 30 nM RS-79948): 34 fold
pKb (equilibrium dissociation constant, Schild x-intercept) [1]: 9.00 ± 0.16
Schild regression slope ([1]; dose ratios of EPI EC50): 0.95 ± 0.11
Compound: CCS(=O)(=O)N1CCC[C@@H]2CN3CCc4cc(OC)ccc4[C@@H]3C[C@@H]21 [RS-79948]

pKb (equilibrium dissociation constant, Schild x-intercept) [1]: 6.14
Compound: COc1ccccc1N1CCN(CCN2C(=O)c3ccccc3C(C)(C)C2=O)CC1 [ARC-239]
